In ChEMBL document CHEMBL5050844 (2019):

Columns and labels:
[1] = Induction of anti-CD3 antibodies-stimulated human exhausted CD4+ T cell activation assessed fold increase in CTLA4 expression measured by flow cytometry analysis; format: functional, T cell line; also: reference of the scale not given here
[2] = Induction of anti-CD3/CD28 antibodies-stimulated human anergic T cell activation at 1.11 uM assessed fold increase in IFN-gamma secretion measured by ELISA assay; format: functional, T cell line
[3] = Induction of anti-CD3 antibodies-stimulated human T cell activation at 10 uM assessed fold increase in TNF-alpha secretion measured by ELISA assay; format: functional, T cell line; also: reference of the scale not given here
[4] = Induction of anti-CD3 antibodies-stimulated human T cell activation at 8 uM assessed fold increase in IL-2 secretion measured by ELISA assay; format: functional, T cell line; also: reference of the scale not given here
[5] = Induction of anti-CD3/CD28 antibodies-stimulated human T cell activation at 10 uM assessed fold increase in IFN-gamma secretion measured by ELISA assay; format: functional, T cell line
[6] = Induction of anti-CD3/CD28 antibodies-stimulated human T cell activation at 4 uM assessed fold increase in CD25 expression measured by ELISA assay; format: functional, T cell line
[7] = Induction of anti-CD3 antibodies-stimulated human exhausted T cell activation assessed fold increase in GM-CSF secretion measured by ELISA assay; format: functional, T cell line; also: reference of the scale not given here
[8] = Induction of activation of human CD56+ CD3- NK cells co-cultured with human K562 cells in 1:1 ratio and assessed as increase in TNF-alpha secretion at 2.5 uM measured by ELISA assay; format: functional, Natural killer cell
[9] = Induction of anti-CD3/CD28 antibodies-stimulated human CD4+ T cell activation at 1.11 uM assessed fold increase in CD69 expression measured by flow cytometry analysis; format: functional, T cell line
[10] = Induction of anti-CD3 antibodies-stimulated human CD8+ T cell activation at 10 uM assessed fold increase in cell proliferation measured by flow cytometry analysis; format: functional, T cell line; also: reference of the scale not given here
[11] = Induction of activation of human CD56+ CD3- NK cells co-cultured with human K562 cells in 1:1 ratio and assessed as increase in IFN-gamma secretion at 10 uM measured by ELISA assay; format: functional, Natural killer cell
[12] = Induction of anti-CD3/CD28 antibodies-stimulated human T cell activation at 10 uM assessed fold increase in TNF-alpha secretion measured by ELISA assay; format: functional, T cell line
[13] = Induction of anti-CD3/CD28 antibodies-stimulated human CD8+ T cell activation at 10 uM assessed fold increase in CD69 expression measured by flow cytometry analysis; format: functional, T cell line
[14] = Induction of anti-CD3/CD28 antibodies-stimulated human CD4+ T cell activation at 10 uM assessed fold increase in cell proliferation measured by flow cytometry analysis; format: functional, T cell line
[15] = Induction of anti-CD3/CD28 antibodies-stimulated human T cell activation at 1 uM assessed fold increase in CD25 expression measured by ELISA assay; format: functional, T cell line
[16] = Induction of anti-CD3 antibodies-stimulated human CD8+ T cell activation at 1.11 uM assessed fold increase in cell proliferation measured by flow cytometry analysis; format: functional, T cell line; also: reference of the scale not given here
[17] = Induction of activation of human CD56+ CD3- NK cells co-cultured with human K562 cells in 1:1 ratio and assessed as increase in TNF-alpha secretion at 0.625 uM measured by ELISA assay; format: functional, Natural killer cell
[18] = Induction of anti-CD3/CD28 antibodies-stimulated human T cell activation at 1.11 uM assessed fold increase in TNF-alpha secretion measured by ELISA assay; format: functional, T cell line
[19] = Induction of anti-CD3/CD28 antibodies-stimulated human T cell activation at 10 uM assessed fold increase in GM-CSF secretion measured by ELISA assay; format: functional, T cell line
[20] = Induction of anti-CD3 antibodies-stimulated human exhausted T cell activation assessed fold increase in IFN-gamma secretion measured by ELISA assay; format: functional, T cell line; also: reference of the scale not given here
[21] = Induction of allogenic human T cell activation at 3 uM assessed fold increase in cell proliferation; format: functional, T cell line
[22] = Induction of allogenic human T cell activation at 10 uM assessed fold increase in cell proliferation; format: functional, T cell line
[23] = Induction of anti-CD3/CD28 antibodies-stimulated human T cell activation at 1.11 uM assessed fold increase in IFN-gamma secretion measured by ELISA assay; format: functional, T cell line
[24] = Induction of anti-CD3/CD28 antibodies-stimulated human anergic T cell activation at 0.37 uM assessed fold increase in IFN-gamma secretion measured by ELISA assay; format: functional, T cell line
[25] = Induction of anti-CD3/CD28 antibodies-stimulated human T cell activation at 0.3 uM assessed fold increase in IL-2 secretion measured by ELISA assay; format: functional, T cell line
[26] = Induction of anti-CD3/CD28 antibodies-stimulated human CD8+ T cell activation at 10 uM assessed fold increase in cell proliferation measured by flow cytometry analysis; format: functional, T cell line
[27] = Induction of anti-CD3 antibodies-stimulated human CD4+ T cell activation at 1.11 uM assessed fold increase in CD69 expression measured by flow cytometry analysis; format: functional, T cell line; also: reference of the scale not given here
[28] = Induction of anti-CD3 antibodies-stimulated human T cell activation at 1 uM assessed fold increase in CD25 expression measured by ELISA assay; format: functional, T cell line; also: reference of the scale not given here
B cell = test: Induction of anti-IgM-stimulated human CD20+ B cell activation at 10 to 1000 uM assessed as increase in CD69 expression measured as mean fluorescence intensity AUC by flow cytometry analysis; format: functional, cell-based; settings: dose 10-1000 µM
[29] = Induction of anti-CD3 antibodies-stimulated human T cell activation at 1 uM assessed fold increase in IL-2 secretion measured by ELISA assay; format: functional, T cell line; also: reference of the scale not given here
[30] = Induction of anti-CD3 antibodies-stimulated human T cell activation at 1.11 uM assessed fold increase in IFN-gamma secretion measured by ELISA assay; format: functional, T cell line; also: reference of the scale not given here
[31] = Induction of anti-CD3 antibodies-stimulated human T cell activation at 10 uM assessed fold increase in GM-CSF secretion measured by ELISA assay; format: functional, T cell line; also: reference of the scale not given here
[32] = Induction of activation of human CD56+ CD3- NK cells co-cultured with human K562 cells in 1:1 ratio and assessed as increase in IFN-gamma secretion at 2.5 uM measured by ELISA assay; format: functional, Natural killer cell
[33] = Induction of anti-CD3/CD28 antibodies-stimulated human T cell activation at 1.11 uM assessed fold increase in GM-CSF secretion measured by ELISA assay; format: functional, T cell line
[34] = Induction of anti-CD3/CD28 antibodies-stimulated human CD8+ T cell activation at 1.11 uM assessed fold increase in cell proliferation measured by flow cytometry analysis; format: functional, T cell line
[35] = Induction of activation of human CD56+ CD3- NK cells co-cultured with human K562 cells in 1:1 ratio and assessed as increase in TNF-alpha secretion at 10 uM measured by ELISA assay; format: functional, Natural killer cell
[36] = Induction of anti-CD3/CD28 antibodies-stimulated human T cell activation at 4 uM assessed fold increase in IL-2 secretion measured by ELISA assay; format: functional, T cell line
[37] = Induction of anti-CD3 antibodies-stimulated human CD4+ T cell activation at 10 uM assessed fold increase in CD69 expression measured by flow cytometry analysis; format: functional, T cell line; also: reference of the scale not given here

| SMILES | fold change (FC) [1] | fold change (FC) [2] | fold change (FC) [3] | fold change (FC) [4] | fold change (FC) [5] | fold change (FC) [6] | fold change (FC) [7] | fold change (FC) [8] | fold change (FC) [9] | fold change (FC) [10] | fold change (FC) [11] | fold change (FC) [12] | fold change (FC) [13] | fold change (FC) [14] | fold change (FC) [15] | fold change (FC) [16] | fold change (FC) [17] | fold change (FC) [18] | fold change (FC) [19] | fold change (FC) [20] | other results |
| --- | --- | --- | --- | --- | --- | --- | --- | --- | --- | --- | --- | --- | --- | --- | --- | --- | --- | --- | --- | --- | --- |
| C[C@@H](c1cc2c(c(C(F)(F)F)c1)CN(c1cccc(C3(Cc4nncn4C)COC3)c1)C2=O)N1CC[C@H](F)C1 | <=1.4 | >4.01 | 2.01 | >=0.201 | >4 | 1.51 | 1.41 | 2.01 | 1.401 | >4 | >=5 | >4 | 1.201 | >4 | 1.51 | >4 | 2.01 | 2.01 | >4 | >1.61 | fold change (FC) [21]: >3; fold change (FC) [22]: >3; fold change (FC) [23]: >4; fold change (FC) [24]: <=2.5; fold change (FC) [25]: >=7.5; fold change (FC) [26]: >4; fold change (FC) [27]: >1.601; fold change (FC) [28]: >=1.001; AUC (B cell): > 1.51; fold change (FC) [29]: >=0.201; fold change (FC) [30]: 3.01; fold change (FC) [31]: >4; fold change (FC) [32]: 2.01; fold change (FC) [33]: >4; fold change (FC) [34]: >4; fold change (FC) [35]: 2.01; fold change (FC) [36]: >=7.5; fold change (FC) [37]: >1.601 |
| Cc1cc(C(=O)Nc2cccc([C@H](C)Cc3nncn3C)c2)nc(C2CC2)n1 | >1.61 | <=2.5 | 1.51 | >=0.201 | >4 | >=1.76 | >1.61 | 2.01 | <=1.2 | >4 | 2.01 | >4 | 1.201 | >4 | >=1.76 | <=2 | 1.01 | 2.01 | >4 | 1.41 | fold change (FC) [21]: <=2; fold change (FC) [22]: 2.01; fold change (FC) [23]: 2.01; fold change (FC) [24]: <=2.5; fold change (FC) [25]: 5; fold change (FC) [26]: >4; fold change (FC) [27]: <=1.2; fold change (FC) [28]: >=1.001; AUC (B cell): > 1.51; fold change (FC) [29]: >=0.201; fold change (FC) [30]: 2.01; fold change (FC) [31]: 2.01; fold change (FC) [32]: 2.01; fold change (FC) [33]: >4; fold change (FC) [34]: <=2; fold change (FC) [35]: 2.01; fold change (FC) [36]: >=7.5; fold change (FC) [37]: >1.601 |
| Cn1cnnc1[C@@H]1C[C@@H]1c1cccc(N2Cc3c(cccc3C(F)(F)F)C2=O)c1 | <=1.4 | <=2.5 | <=1.5 | <=0.05 | 2.01 | >=1.76 | <=1.4 | 1.01 | <=1.2 | 3.01 | 2.01 | 2.01 | 1.201 | >4 | >=1.76 | <=2 | 1.01 | <=1.5 | 2.01 | 1.41 | fold change (FC) [21]: <=2; fold change (FC) [22]: <=2; fold change (FC) [23]: <=2; fold change (FC) [24]: <=2.5; fold change (FC) [25]: <=1; fold change (FC) [26]: 2.01; fold change (FC) [27]: <=1.2; fold change (FC) [28]: 0.601; AUC (B cell): 0.5; fold change (FC) [29]: <=0.05; fold change (FC) [30]: <=2; fold change (FC) [31]: 2.01; fold change (FC) [32]: 1.01; fold change (FC) [33]: 1.51; fold change (FC) [34]: <=2; fold change (FC) [35]: 1.01; fold change (FC) [36]: 2.51; fold change (FC) [37]: 1.201 |
